Test results from patent publication US12162819B2, “Ionizable lipid compounds” (Beijing Jitai Pharmaceutical Technology Co., Ltd., priority 2022, dated 2024).

Key:
[1] = Encapsulation efficiency of lipid nanoparticles, Quant-It RiboGreen RNA Assay; format: physicochemical; conditions: lipid nanoparticle with the cationic lipid, luciferase mRNA
Procedure: (§1) Lipid nanoparticles were prepared by (1) dissolving and mixing ionizable lipid compounds, cholesterol, phospholipids and polyethylene glycolated lipids in ethanol at (molar percentages) 50%, 38.5%, 10% and 1.5%, respectively; (2) dissolving the mRNA active ingredient in 25 mM sodium acetate solution (pH=4.5); (3) using an automated high-throughput microfluidic system to mix the organic phase containing the lipid mixture and the aqueous phase containing the mRNA component in the flow ratio range of 1:1 to 1:4 at a mixing speed of 10 mL/min to 18 mL/min; (4) the prepared lipid nanoparticles (N/P ratio of 6) were diluted with phosphate buffer solution and the nanoparticle solutions were ultrafiltered to the original preparation volume using ultrafiltration tubes (purchased from Millipore) with a cut-off molecular weight of 30 kDa; and (5) the obtained nanoparticles were filtered through a sterile 0.2 μm filter membrane and then stored in a sealed glass vial at low temperature.
(§2) The particle size and particle size dispersity index (PDI) of the prepared lipid nanoparticles were measured using a Zetasizer Pro (purchased from Malvern Instruments Ltd) and a DynaPro NanoStar (purchased from Wyatt) dynamic light scattering instrument. The degree of RNA encapsulation by lipid nanoparticles was characterized by the Encapsulation Efficiency %, which reflects the degree of binding of lipid nanoparticles to RNA fragments. This parameter was measured by the method of Quant-It™ RiboGreen RNA Assay (purchased from Invitrogen). Lipid nanoparticle samples were diluted in TE buffer (10 mM Tris-HCl, 1 mM EDTA, pH=7.5). A portion of the sample solution was removed, to which 0.5% Triton (Triton X-100) was added, and then allowed to stand at 37° C. for 30 minutes. Immediately after the addition of RIBOGREEN® reaction solution, the fluorescence values were read on a Varioskan LUX multifunctional microplate reader (purchased from Thermofisher) at 485 nm for absorption and 528 nm for emission to give the encapsulation efficiency values.

[2] = Particle size and PDI of lipid nanoparticles by dynamic light scattering; format: physicochemical; conditions: lipid nanoparticle with the cationic lipid, cholesterol, DSPC, DMG-PEG2000 (50/38.5/10/1.5 mol%), luciferase mRNA, N/P 6
Procedure: as §1, §2

Row | Structure (SMILES) | Encapsulation efficiency (%) [1] | Particle size (nm) [2] | Particle size dispersity (PDI) [2]
1 | CC(C)CCCC(C)CCOC(=O)C(C)(C)CCCCCC(CCCCCC(C)(C)C(=O)OCCC(C)CCCC(C)C)OC(=O)CCN(C)C (stereo not drawn) [Compound 6] | 90.26% | 106.18 nm | 0.05
2 | CCCCCCCCCCCCNC(=O)C(C)(C)CCCCCC(CCCCCC(C)(C)C(=O)NCCCCCCCCCCCC)OC(=O)CCN(C)C [Compound 10] | 53.83% | 118.59 nm | 0.07
3 | CCCCCCCCC(CCCCCCCC)NC(=O)C(C)(C)CCCCCC(CCCCCC(C)(C)C(=O)NC(CCCCCCCC)CCCCCCCC)OC(=O)CCN(C)C [Compound 11] | 95.61% | 46.49 nm | 0.03
4 | CCCCCCCCCN(CCCCCCCCC)C(=O)C(C)(C)CCCCCC(CCCCCC(C)(C)C(=O)N(CCCCCCCCC)CCCCCCCCC)OC(=O)CCN(C)C [Compound 12] | 85.02% | 89.34 nm | 0.07
5 | CCCCCCCCCCSC(=O)C(C)(C)CCCCCC(CCCCCC(C)(C)C(=O)SCCCCCCCCCC)OC(=O)CCCCCN(C)C [Compound 36] | 97.52% | 88.33 nm | 0.07
6 | CCCCCCCCCCOC(=O)C(C)(C)CCCCCC(CCCCCC(C)(C)C(=O)OCCCCCCCCCC)OC(=O)CCN1CCOCC1 [Compound 90] | 83.21% | 18.17 nm | 0.05
7 | CCCCCCCCCCOC(=O)C(C)(C)CCCCCC(CCCCCC(C)(C)C(=O)OCCCCCCCCCC)OC(=O)CN1CCOCC1 [Compound 91] | 102.99% | 32.61 nm | 0.05
8 | CCCCCCCCOC(=O)C(C)(C)CCCCCC(CCCCCC(C)(C)C(=O)OCCCCCCCC)OC(=O)C1CCN(C(C)C)CC1 [Compound 101] | 76.09% | 152.45 nm | 0.06
9 | CCCCCCCCCOC(=O)C(C)(C)CCCCCC(CCCCCC(C)(C)C(=O)OCCCCCCCCC)OC(=O)C1CCN(C)CC1 [Compound 102] | 90.03% | 102.18 nm | 0.03
10 | CCCCCCCCCOC(=O)C(C)(C)CCCCCC(CCCCCC(C)(C)C(=O)OCCCCCCCCC)OC(=O)C1CCN(C(C)C)CC1 [Compound 103] | 90.97% | 148.67 nm | 0.04
11 | CCCCCCCCCCSC(=O)C(C)(C)CCCCCC(CCCCCC(C)(C)C(=O)SCCCCCCCCCC)OC(=O)C1CCN(C)CC1 [Compound 104] | 85.54% | 71.14 nm | 0.06
12 | CCCCCCCCCCSC(=O)C(C)(C)CCCCCC(CCCCCC(C)(C)C(=O)SCCCCCCCCCC)OC(=O)C1CCN(C(C)C)CC1 [Compound 105] | 94.67% | 78.80 nm | 0.05
13 | CCCCCCCCCSC(=O)C(C)(C)CCCCCC(CCCCCC(C)(C)C(=O)SCCCCCCCCC)OC(=O)C1CCN(C)CC1 [Compound 106] | 85.65% | 83.09 nm | 0.05
14 | CCCCCCCCCSC(=O)C(C)(C)CCCCCC(CCCCCC(C)(C)C(=O)SCCCCCCCCC)OC(=O)C1CCN(C(C)C)CC1 [Compound 107] | 83.74% | 99.54 nm | 0.05
15 | CCCCCCCCCSC(=O)C(C)(C)CCCCCC(CCCCCC(C)(C)C(=O)SCCCCCCCCC)OC(=O)CC1CCN(C)CC1 [Compound 108] | 92.63% | 121.41 nm | 0.05

The remaining lines, values ahead:

Row | Encapsulation efficiency (%) [1] | Particle size (nm) [2] | Particle size dispersity (PDI) [2] | Structure (SMILES)
16 | 91.54% | 80.07 nm | 0.06 | CCCCCCCCCCOC(=O)C(C)(C)CCCCCC(CCCCCC(C)(C)C(=O)OCCCCCCCCCC)OC(=O)CCN(C)C [Compound 1]
17 | 79.14% | 229.35 nm | 0.03 | CCCCCCCCOC(=O)C(C)(C)CCCCCC(CCCCCC(C)(C)C(=O)OCCCCCCCC)OC(=O)CCN(C)C [Compound 2]
18 | 86.88% | 133.80 nm | 0.04 | CCCCCCCCCOC(=O)C(C)(C)CCCCCC(CCCCCC(C)(C)C(=O)OCCCCCCCCC)OC(=O)CCN(C)C [Compound 3]
19 | 69.51% | 203.67 nm | 0.04 | CC/C=C\CCCCCOC(=O)C(C)(C)CCCCCC(CCCCCC(C)(C)C(=O)OCCCCC/C=C\CC)OC(=O)CCN(C)C [Compound 7]
20 | 60.36% | 127.82 nm | 0.07 | CCCCCCCCCCNC(=O)C(C)(C)CCCCCC(CCCCCC(C)(C)C(=O)NCCCCCCCCCC)OC(=O)CCN(C)C [Compound 8]
21 | 19.41% | 352.82 nm | 0.07 | CCCCCCCCCNC(=O)C(C)(C)CCCCCC(CCCCCC(C)(C)C(=O)NCCCCCCCCC)OC(=O)CCN(C)C [Compound 9]
22 | 30.95% | 81.43 nm | 0.12 | CCCCCCCCCCOC(=O)C(C)(C)CCCCCC(CCCCCC(C)(C)C(=O)OCCCCCCCCCC)OC(=O)CN(C)C [Compound 17]
23 | 87.86% | 161.29 nm | 0.05 | CCCCCCCCCCOC(=O)C(C)(C)CCCCCC(CCCCCC(C)(C)C(=O)OCCCCCCCCCC)OC(=O)CCCN(C)C [Compound 18]
24 | 67.96% | 135.15 nm | 0.19 | CCCCCCCCOC(=O)C(C)(C)CCCCCC(CCCCCC(C)(C)C(=O)OCCCCCCCC)OC(=O)CCCN(C)C [Compound 19]
25 | 70.22% | 151.35 nm | 0.07 | CCCCCCCC#CCOC(=O)C(C)(C)CCCCCC(CCCCCC(C)(C)C(=O)OCC#CCCCCCCC)OC(=O)CCCN(C)C [Compound 23]
26 | 60.98% | 133.72 nm | 0.04 | CCCCCCC#CCCOC(=O)C(C)(C)CCCCCC(CCCCCC(C)(C)C(=O)OCCC#CCCCCCC)OC(=O)CCCN(C)C [Compound 24]
27 | 32.43% | 236.90 nm | 0.06 | CCCCC#CCCCCOC(=O)C(C)(C)CCCCCC(CCCCCC(C)(C)C(=O)OCCCCC#CCCCC)OC(=O)CCCN(C)C [Compound 25]
28 | 81.29% | 96.69 nm | 0.05 | CCCCCCC/C=C\COC(=O)C(C)(C)CCCCCC(CCCCCC(C)(C)C(=O)OC/C=C\CCCCCCC)OC(=O)CCCN(C)C [Compound 26]
29 | 88.99% | 105.70 nm | 0.05 | CCCCCC/C=C\CCOC(=O)C(C)(C)CCCCCC(CCCCCC(C)(C)C(=O)OCC/C=C\CCCCCC)OC(=O)CCCN(C)C [Compound 27]
30 | 88.67% | 105.84 nm | 0.04 | CCCCCCCCCCSC(=O)C(C)(C)CCCCCC(CCCCCC(C)(C)C(=O)SCCCCCCCCCC)OC(=O)CCN(C)C [Compound 33]
31 | 90.29% | 104.71 nm | 0.04 | CCCCCCCCCCSC(=O)C(C)(C)CCCCCC(CCCCCC(C)(C)C(=O)SCCCCCCCCCC)OC(=O)CCCN(C)C [Compound 34]
32 | 97.06% | 83.90 nm | 0.05 | CCCCCCCCCCSC(=O)C(C)(C)CCCCCC(CCCCCC(C)(C)C(=O)OCCCCCCCCC)OC(=O)CCCN(C)C (stereo not drawn) [Compound 40]
33 | 71.95% | 152.04 nm | 0.07 | CCCCCCC#CCOC(=O)C(C)(C)CCCCCC(CCCCCC(C)(C)C(=O)OCCCCCCCCC)OC(=O)CCCN(C)C (stereo not drawn) [Compound 42]
34 | 91.66% | 107.56 nm | 0.05 | CCCCCCCCCCOC(=O)C(C)(C)CCCCCC(CCCCCC(C)(C)C(=O)OCCCCCCCCCC)OC(=O)CCN1CCCC1 [Compound 92]
35 | 93.28% | 107.87 nm | 0.13 | CCCCCCC/C=C\COC(=O)CC(C)(C)CCCCC(CCCCC(C)(C)CC(=O)OCC(CCCCC)CCCCCCC)OC(=O)CCCN(C)C (stereo not drawn) [Compound 98]
